Measurements: patent US20210290597A1, “METHOD OF TREATING A CONDITION ASSOCIATED WITH NEURODEGENERATION USING INHIBITORS OF OAT3” (Neuropore Therapies, Inc., priority 2018, published 2021)

Assays:
total alpha-synuclein = experiment: Total alpha-synuclein IHC, L61 ASYN transgenic mice, 1 month study; assay type: in vivo; details: for reduction of total alpha-synuclein level in cortex compared to vehicle control: L61 ASYN transgenic mice
Procedure: (§1) Multiple in vivo administration studies of Compound 1 were carried out in the Line 61 (L61) mThy1-alpha-synuclein transgenic mouse model of Parkinson's disease (PD). The mThy1-alpha-synuclein transgenic mouse model overexpresses wild-type human ASYN under the Thy-1 promoter (commonly referred to as Line 61 transgenic mice; Rockenstein et al., 2002). This transgenic mouse develops extensive accumulation of alpha-synuclein (ASYN) in areas relevant to PD (Rockenstein et al., 2002; Chesselet et al., 2012; Games et al., 2013), neurodegeneration including dopaminergic neurodegeneration, reduced dopamine (DA) and TH loss in the striatum (Masliah et al., 2000; Lam et al., 2011), and motor deficits (Fleming et al., 2004). Male transgenic and non-transgenic littermates (3-3.5 mo) were used for all in vivo studies presented here.
Alpha-synuclein (ASYN) is a neuronal protein whose dysregulation has been implicated in the pathogenesis of PD. The effects of Compound 1 on alpha-synuclein aggregation were assessed in both L61 ASYN transgenic and non-transgenic mice in a 1 month administration study. L61 ASYN transgenic mice (36 total mice, n=8-11 mice per treatment group) were injected (i.p.) daily with 1, 5, or 10 mg/kg of Compound 1 or a vehicle control (5% DMSO+20% Cremphor EL+0.9% normal saline) for 1 month. Non-transgenic mice (18 total mice, n=8-11 mice per treatment group) were used as a control and were injected daily (i.p.) with 10 mg/kg of Compound 1 or a vehicle control (5% DMSO+20% Cremphor EL+0.9% normal saline) per day for 1 month. At the end of one month, the mice were sacrificed, and immunohistochemical (IHC) detection of total alpha-synuclein deposits, insoluble alpha-synuclein deposits (PK+resistant), microtubule-associated protein 1A/1B-light chain 3 (LC3), and monomeric alpha-synuclein levels were assessed in the harvested brain tissues.
The quantification and IHC staining of total alpha-synuclein were performed using known techniques (Rockenstein et al., J Neurosci Res. 2002, 68(5):568-78; Tanji et al., Acta Neuropathol. 2010, 120, 145-154; Nuber et al., Brain. 2013 February; 136(Pt 2):412-32).

[1] = tested on: Translocator Protein (18 kDa) (TSPO); experiment: TSPO immunofluorescence, L41 APP transgenic mice; assay type: in vivo; details: 5 mg/kg daily i.p.
Procedure: Neuroinflammation is associated with increased expression of the 18-kDa translocator protein (TSPO), which is present on the mitochondria of activated microglia, astroglia and macrophages (Crawshaw and Robertson 2017). The effects of Compound 1 on TSPO expression were assessed in both L41 APP transgenic and non-transgenic mice in a 1 month administration study. L41 APP transgenic mice (36 total mice, n=8-11 mice per treatment group) were injected (i.p.) daily with 5 mg/kg of Compound 1 or a vehicle control (5% DMSO+20% Cremphor EL+0.9% normal saline) for […]. Non-transgenic mice (18 total mice, n=8-11 mice per treatment group) were used as a control and were injected daily (i.p.) with 10 mg/kg of Compound 1 (data not shown) or a vehicle control (5% DMSO+20% Cremphor EL+0.9% normal saline) for 1 month. After 30 days, the mice were sacrificed, and immunofluoresence (IF) detection of TSPO were assessed in the harvested brain tissues.
The harvested brain tissues were drop fixed using 4% PFA and sectioned on a vibratome, and representative sections corresponding to the neuropil of cortex were assessed for TSPO with standard immunofluorescence (IF) staining.

[2] = tested on: glial fibrillary acidic protein (GFAP); experiment: GFAP IHC, L61 ASYN transgenic mice; assay type: in vivo
Procedure: Neuroinflammation is also associated with increased expression of glial fibrillary acidic protein (GFAP) in activated astrocytes, which is induced by a variety of molecules including pro-inflammatory mediators released from activated microglia (Saijo et al. 2009). Increased expression of glial fibrillary acidic protein (GFAP) represents astroglial activation and gliosis during neurodegeneration. (Brahmachari et al., 2006). The effects of Compound 1 on GFAP expression were assessed in both L61 ASYN transgenic and non-transgenic mice in a 1 month administration study. After 30 days, the mice were sacrificed, and IHC detection of GFAP was assessed in the harvested brain tissues.
The harvested brain tissues from treated mice were fixed (drop fixed in 4% PFA) and then sectioned into 40 micro thick sections using a vibratome. The representative sections containing the hippocampus were assessed for GFAP with standard immunohistochemistry staining. The general methods used for GFAP immunostaining follow those described in Rockenstein et al., J Neurosci Res. 2002, 68(5):568-78.

[3] = tested on: microtubule-associated protein 1A/1B-light chain 3 (LC3); experiment: LC3 immunolabeling, L61 ASYN transgenic mice, 1 month study; assay type: in vivo; details: 1, 5 or 10 mg/kg per day i.p.
Procedure: as §1, with “Male transgenic and non-transgenic littermates (3-3.5 mo) were used for all in vivo studies presented here.” left out
Alpha-synuclein (ASYN) is a neuronal protein whose dysregulation has been implicated in the pathogenesis of PD. The effects of Compound 1 on alpha-synuclein aggregation were assessed in both L61 ASYN transgenic and non-transgenic mice in a 1 month administration study. […] At the end of one month, the mice were sacrificed, and immunohistochemical (IHC) detection of total alpha-synuclein deposits, insoluble alpha-synuclein deposits (PK+resistant), microtubule-associated protein 1A/1B-light chain 3 (LC3), and monomeric alpha-synuclein levels were assessed in the harvested brain tissues.

[4] = target: T1, human transporter OATP1B1 (Homo sapiens, UniProt Q9Y6L6); experiment: In vitro ion transport assay 1, OATP1B1; assay type: cell-based; details: probe substrate 2 μM [3H]-estradiol-17β-D-glucuronide
T1 construct: expressed in transfected cells; host or cells: MDCK-II
T1 sequence (Q9Y6L6 1-691): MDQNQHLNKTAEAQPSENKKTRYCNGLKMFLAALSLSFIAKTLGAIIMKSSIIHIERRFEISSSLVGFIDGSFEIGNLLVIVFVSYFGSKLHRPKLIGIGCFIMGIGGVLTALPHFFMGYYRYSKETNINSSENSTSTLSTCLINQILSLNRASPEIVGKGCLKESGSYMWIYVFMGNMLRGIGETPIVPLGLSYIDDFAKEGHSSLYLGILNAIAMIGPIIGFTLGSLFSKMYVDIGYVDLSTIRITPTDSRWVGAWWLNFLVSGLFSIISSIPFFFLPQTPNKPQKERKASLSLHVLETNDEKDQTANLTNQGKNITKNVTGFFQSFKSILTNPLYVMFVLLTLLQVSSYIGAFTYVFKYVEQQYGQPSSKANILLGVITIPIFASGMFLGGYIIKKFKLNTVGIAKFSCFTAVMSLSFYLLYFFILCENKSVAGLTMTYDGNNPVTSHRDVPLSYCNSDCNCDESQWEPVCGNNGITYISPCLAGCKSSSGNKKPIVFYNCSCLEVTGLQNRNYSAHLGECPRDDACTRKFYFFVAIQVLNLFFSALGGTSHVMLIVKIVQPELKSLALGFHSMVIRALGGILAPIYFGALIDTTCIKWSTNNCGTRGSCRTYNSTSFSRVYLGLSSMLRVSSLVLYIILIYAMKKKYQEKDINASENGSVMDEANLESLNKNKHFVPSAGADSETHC
Procedure: (§2) Compound 1 was studied in the concentration range of 0.1-100 μM for its potency against transport mediated by various transporter proteins. [table]

P-gp (MDR1) = target: T2, P-gp (MDR1) (Homo sapiens, UniProt P08183); experiment: In vitro ion transport assay 1, P-gp; assay type: cell-based; details: probe substrate 100 nM [3H]-quinidine
T2 construct: expressed in transfected cells
Procedure: as §2

T2 sequence (P08183 whole entry, species assumed): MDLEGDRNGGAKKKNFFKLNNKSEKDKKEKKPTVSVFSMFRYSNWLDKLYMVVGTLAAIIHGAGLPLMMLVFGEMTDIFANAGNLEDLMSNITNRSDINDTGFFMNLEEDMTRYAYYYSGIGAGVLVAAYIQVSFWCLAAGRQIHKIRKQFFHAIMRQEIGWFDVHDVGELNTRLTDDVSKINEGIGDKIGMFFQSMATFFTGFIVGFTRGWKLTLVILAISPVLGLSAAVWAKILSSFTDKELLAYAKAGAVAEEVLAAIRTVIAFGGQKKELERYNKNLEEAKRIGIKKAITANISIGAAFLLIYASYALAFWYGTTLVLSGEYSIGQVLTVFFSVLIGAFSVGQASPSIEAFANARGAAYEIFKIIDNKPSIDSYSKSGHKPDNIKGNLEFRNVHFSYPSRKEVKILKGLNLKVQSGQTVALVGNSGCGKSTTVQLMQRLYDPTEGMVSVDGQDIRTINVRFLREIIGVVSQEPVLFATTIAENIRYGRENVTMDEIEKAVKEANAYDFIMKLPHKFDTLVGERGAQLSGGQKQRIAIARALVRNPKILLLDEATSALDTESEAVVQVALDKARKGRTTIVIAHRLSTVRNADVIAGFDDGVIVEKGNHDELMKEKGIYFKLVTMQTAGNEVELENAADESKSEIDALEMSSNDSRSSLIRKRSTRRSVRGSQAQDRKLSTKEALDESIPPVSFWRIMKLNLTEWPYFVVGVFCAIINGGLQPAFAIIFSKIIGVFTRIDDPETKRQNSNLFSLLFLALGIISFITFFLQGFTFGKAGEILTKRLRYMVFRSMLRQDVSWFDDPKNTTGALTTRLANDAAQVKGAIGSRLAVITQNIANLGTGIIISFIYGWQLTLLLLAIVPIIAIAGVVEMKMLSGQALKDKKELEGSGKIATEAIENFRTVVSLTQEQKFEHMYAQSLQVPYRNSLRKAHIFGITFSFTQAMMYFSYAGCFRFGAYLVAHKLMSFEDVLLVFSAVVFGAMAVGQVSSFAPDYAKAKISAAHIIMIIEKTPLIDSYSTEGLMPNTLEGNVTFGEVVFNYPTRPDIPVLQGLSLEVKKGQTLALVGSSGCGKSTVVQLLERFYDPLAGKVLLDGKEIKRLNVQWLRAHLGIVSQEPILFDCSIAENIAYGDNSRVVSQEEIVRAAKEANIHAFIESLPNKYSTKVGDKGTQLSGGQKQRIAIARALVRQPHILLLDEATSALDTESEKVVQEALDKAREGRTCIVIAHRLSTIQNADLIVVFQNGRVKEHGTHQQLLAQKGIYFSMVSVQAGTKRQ

Compound: O=S(=O)(c1ccc(-n2cn[nH]c2=S)cc1)c1ccc(Cl)c(C(F)(F)F)c1 [Compound 1, 4-(4-((4-chloro-3-(trifluoromethyl)phenyl)sulfonyl)phenyl)-2,4-dihydro-3H-1,2,4-triazole-3-thione]
- reduction of total alpha-synuclein level in cortex compared to vehicle control (total alpha-synuclein; 1 mg/kg daily i.p.): 13%
- reduction of total alpha-synuclein level in cortex compared to vehicle control (total alpha-synuclein; 5 mg/kg daily i.p.): 32%
- reduction of total alpha-synuclein level in cortex compared to vehicle control (total alpha-synuclein; 10 mg/kg daily i.p.): 38%
- total ASYN in the neuropil of cortex, hippocampus and striatum vs vehicle (total alpha-synuclein; 1, 5 or 10 mg/kg per day i.p., statistically significant): reduced total ASYN
- cortical TSPO level vs vehicle-treated Line 41 mice [1]: reduces the TSPO level in a statistically significant manner
- GFAP levels, IHC staining intensity in representative images ([2]; 5 mg/kg or 10 mg/kg daily i.p.): reducing cortical levels of GFAP
- GFAP levels, quantification of IHC staining ([2]; 10 mg/kg daily i.p.): reduces the cortical GFAP levels in a statistically significant manner
- levels of LC3 immunolabeling in cortex and striatum [3]: increased
- IC50 [4]: 14.6 µM
- IC50 (P-gp (MDR1)): 37.1 µM
